Reference: article PMC12040169 (PLOS Biology, 2025)

Assay: in vitro
Settings: human, hela cells, % viability

| Structure (SMILES) | viability at 28.5 h, 10 µM [%] |
| --- | --- |
| COc1ccccc1-c1ccc(CC2(C(=O)NCc3cccs3)CCOCC2)cc1 [CBK286517] | 93 |
| Cc1cc(C(=O)Nc2ccc3ncccc3c2)ccc1Cl [CBK159804] | 88.8 |
| O=S(=O)(/N=C/N1CCCC1)c1ccccc1 [CBK023272] | 89.4 |
| NS(=O)(=O)c1ccc(NC(=S)NC(=O)c2ccc(Cl)cc2Cl)cc1 [CBK266265] | 94 |
| CC(=O)Nc1cccc(-n2nnnc2SCc2cnn(C)c2)c1 [CBK305471] | 101 |
| Cc1nn(Cc2ccc(F)cc2)c(C)c1NC(=O)c1cnn2c(C(F)(F)F)cc(-c3ccccc3)nc12 [CBK268231] | 96.7 |
| CN(CC(=O)NCc1ccc2c(c1)OCO2)Cc1ccc(Br)s1 [CBK295185] | 80.4 |
| Cc1nc(CN2CCCN(C(=O)c3cccc(C#N)c3)CC2)cs1 [CBK305363] | 83.6 |
| Cc1cccc(Nc2[nH]c3cc(C)ccc3c2[N+](=O)[O-])c1 [CBK266303] | 81.9 |
| O=C(CCc1ccncc1)N1CCC(c2cc3ncccc3[nH]2)CC1 [CBK284460] | 84.3 |
| CC(C)CC(=O)N1CCC(n2c(=O)oc3ccc(Cl)cc32)CC1 [CBK285477] | 105 |
| CS(=O)(=O)Nc1nnc(SCC(=O)Nc2cccc([N+](=O)[O-])c2)s1 [CBK045536] | 102 |
| C=CCNS(=O)(=O)c1ccc(NC(=O)Cc2cccc3ccccc23)cc1 [CBK269379] | 109 |
| COc1cc(OC)cc(C(=O)N2CCC3(CC2)CC(=O)c2cc(F)cc(F)c2O3)c1 [CBK168089] | 108 |
| Cc1ccc(S(=O)(=O)Oc2cccc(C(c3c(C)n[nH]c3O)c3c(C)n[nH]c3O)c2)cc1 [CBK265016] | 95.1 |
| Cc1ccc(OCC(O)CN2CCN(c3ccccn3)CC2)cc1C (stereo not shown) [CBK058884] | 86.9 |
| COC(=O)c1cn(-c2ccc(Cl)cc2)c(=O)c2ccccc12 [CBK116489] | 101 |
| COc1cc(F)cc(OC2CCNCC2)c1NC(=O)/C=C/c1cccnc1 [CBK050344T] | 103 |
| COCCCNC(=O)Cn1cccc2cc(-c3ccc(F)cc3)nc1-2 [CBK284834] | 93.4 |
| CC(C)(C)OC(=O)NCc1ccc(-c2cc(N3CCN(C(=O)c4ccco4)CC3)ncn2)cc1 [CBK091107] | 98.3 |
| CS(=O)(=O)Nc1cc(-c2noc([C@@H]3CCCN3C3CCOCC3)n2)ccn1 [CBK288887] | 81.8 |
| CCOc1ccc(C(N)CC(=O)O)c2ccccc12 (stereo not shown) [CBK287120] | 89.1 |

| Structure (SMILES) | viability at 28.5 h, 10 µM [%] |
| --- | --- |
| CC(C)N(C)C1CCN(S(=O)(=O)c2cccc([N+](=O)[O-])c2)CC1 [CBK294462] | 88.7 |
| COC(=O)C1C2CCN(CC2)C1SCc1cccc(C(F)(F)F)c1 (stereo not shown) [CBK010829C] | 87.1 |
| COC(=O)NC(NC(=O)OC)C(=O)c1ccccc1 [CBK020208] | 100 |
| CS(=O)(=O)N1CCCC(C(=O)Nc2nccs2)C1 (stereo not shown) [CBK287834] | 100 |
| O=c1c2c3c(sc2nc(SCc2nc4ccccc4[nH]2)n1Cc1ccco1)CCC3 [CBK268306] | 104 |
| CCCN(CC1CCCO1)C(=O)c1cnn(-c2ccc(F)cc2)c1 (stereo not shown) [CBK283317] | 89.7 |
| CC1CCCCN1C(=O)CN1C(=O)N2CCN=C2c2ccccc21 (stereo not shown) [CBK283921] | 102 |
| CN(C)C(=O)c1cccc(-c2cnc(N3CCOCC3)c3nccn23)c1 [CBK091261] | 101 |
| Cc1cc(Cl)ccc1NC(=O)COC(=O)c1ccccc1I [CBK265638] | 89.6 |
| Cc1ccc(N2C(=O)CSC2c2ccc(Cl)cc2Cl)cc1 (stereo not shown) [CBK025673] | 105 |
| CCOc1cc(C2CC(=O)NC(SCC(=O)Nc3cccc(C(F)(F)F)c3)=C2C#N)ccc1O (stereo not shown) [CBK265778] | 104 |
| O=C(NCc1ccc2c(c1)OCO2)[C@H]1CN2CCC1C[C@@H]2Cn1cc(-c2ccccn2)nn1 (stereo partly shown) [CBK289082] | 102 |
| CCN(CC)C1=NC(=S)N(C)C(c2ccc(OC)cc2)S1 (stereo not shown) [CBK006804] | 99.3 |
| Cn1c(=O)c2c(nc(CN3CCN(C(=O)c4ccco4)CC3)n2CCc2ccccc2)n(C)c1=O [CBK269278] | 80.6 |
| CCOC(=O)NC(Nn1cnnc1)(C(F)(F)F)C(F)(F)F [CBK261344] | 117 |
| Cn1c(=O)c2c(ncn2CCOc2cnc(-c3cnn(Cc4ccccc4)c3)c(N)n2)n(C)c1=O [CBK145193] | 97.4 |
| Nc1nnc(CCS(=O)(=O)c2ccc(Br)cc2)s1 [CBK026286] | 109 |
| CSc1nnc(C2CCCN2C(=O)[C@@H]2C[C@@H]3C=C[C@H]2C3)n1C (stereo partly shown) [CBK282012] | 79.8 |
| CC(=O)N1CCCC[C@H]2[C@H]1C[C@@H](c1ccccc1)N2C(=O)CN1CCCCCC1 [CBK286120] | 117 |
| CC(=O)Nc1ccc(N/C=C(/C#N)c2nc(-c3ccc([N+](=O)[O-])cc3)cs2)cc1 [CBK262377] | 106 |
| CCOC(=O)CNS(=O)(=O)c1cc(Cl)sc1Cl [CBK034431] | 113 |
| O=C(COc1ccc(C(=O)c2ccc(F)cc2)cc1)c1ccc2c(c1)OCCO2 [CBK297536] | 111 |

| Structure (SMILES) | viability at 28.5 h, 10 µM [%] |
| --- | --- |
| Cc1ccc(C(=O)C(NC(=O)c2cccs2)Nc2ccc(S(N)(=O)=O)cc2)cc1 (stereo not shown) [CBK264897] | 89 |
| CC(=O)Nc1cccc(-n2nnnc2SC2CCCCC2=O)c1 (stereo not shown) [CBK304600] | 95.4 |
| O=C(Nc1ncnc2nc[nH]c12)NC1CCCCC1 [CBK022860] | 97.7 |
| CC(CNS(=O)(=O)c1ccc(N2CCCC2=O)cc1)Cn1cccn1 (stereo not shown) [CBK304656] | 87.7 |
| O=C(Cc1cccc2ccccc12)NC(=S)Nc1cccc(C(=O)O)c1 [CBK267471] | 90.7 |
| Cc1nn(CC(=O)NC(C)C)c(=O)c2cc3sccc3n12 [CBK284048] | 104 |
| COC(=O)C1ON2CCCCC2C1(O)C(F)(F)F (stereo not shown) [CBK007430] | 90.6 |
| COc1cccc(CNCCO)c1OCc1ccccc1F [CBK266594C] | 104 |
| CC(=O)N1CCC(C(=O)NC(=O)NCCOc2ccccc2Cl)CC1 [CBK034842] | 97.9 |
| O=C(O)c1ccc(S(=O)(=O)NCC2CCCO2)cc1 (stereo not shown) [CBK262364] | 79.8 |
| O=[N+]([O-])c1ccc2c(c1)nnn2CN1CCCCC1 [CBK261663] | 90.4 |
| CC(=O)Nc1ccc(C(=O)NCc2ccc(S(N)(=O)=O)cc2)cc1 [CBK263642] | 105 |
| Cc1ccc2cc(CNc3ccc4c(c3)-c3ccccc3S(=O)(=O)N4)c(=O)[nH]c2c1 [CBK286163] | 70.6 |
| Oc1ccccc1/C=N/c1ccc(Cc2ccc(/N=C/c3ccccc3O)c(O)c2)cc1O [CBK261156] | 93.4 |
| Cc1cccn2cc(CCNC(=O)CN3Cc4ccccc4C3)nc12 [CBK305166] | 101 |
| Cc1cc(OCC(=O)N2CCNC(=O)C2)c2c(C)c(C)c(=O)oc2c1 [CBK307624] | 94.7 |
| C1CN=C(SCCCCSC2=NCCCN2)NC1 [CBK278223B] | 107 |
| CC12CN(Cc3ccccc3)CC1NC(=O)c1ccccc1C2N (stereo not shown) [CBK282850] | 99.5 |
| Cc1ccc(-c2ccc(CCC(=O)O)n2CC(=O)O)cc1 [CBK286922] | 94.8 |
| O=C(Nc1cc(Oc2ccc(Cl)cc2)cc([N+](=O)[O-])c1)c1cnn2c(C(F)F)cc(C3CC3)nc12 [CBK268925] | 105 |
| COc1cc(CNc2nc[nH]n2)ccc1OCc1ccc(C)cc1 [CBK269768] | 113 |
| Cc1nn(CCC(=O)NCCN2CCC(C)CC2)c(C)c1Cl [CBK281571] | 104 |

| Structure (SMILES) | viability at 28.5 h, 10 µM [%] |
| --- | --- |
| Cc1ccc(-c2nnc(CNC(=O)c3cccc(F)c3F)o2)s1 [CBK284641] | 91.1 |
| Cc1ccnc(SCc2ccc(F)cc2Cl)n1 [CBK270290] | 87.4 |
| Cc1ccc2cc(CN3CCCC(N)CC3)c(N3CCOCC3)nc2c1 (stereo not shown) [CBK307693] | 83.5 |
| COc1ccccc1NC(=O)CSc1nnc(-c2ccncc2)o1 [CBK287743] | 87 |
| C/C(=N\NC(=O)c1ccc(CN2CCOCC2)cc1)c1ccc2c(c1)OCCO2 [CBK262755] | 92 |
| COc1ccc(CCNC(=O)N(CCC#N)C2CCCCC2)cc1OC [CBK156363] | 108 |
| O=C(c1cccs1)N1CCCN(Cc2cn3ccccc3n2)CC1 [CBK305304] | 102 |
| O=C(Nc1ccc(-c2ccccc2C(F)(F)F)s1)C(F)(F)F [CBK099942] | 96.3 |
| c1ccc2c(OCc3nnn[nH]3)cccc2c1 [CBK269495] | 103 |
| O=C(NC(=S)Nc1ccc(OCc2ccccc2)cc1)c1cccnc1 [CBK266224] | 97.8 |
| Cc1nn(Cc2ccc(F)cc2)c(=O)c2cc3sccc3n12 [CBK284059] | 72.7 |
| COc1ccc(S(=O)(=O)Nc2ccccc2C(=O)O)cc1C(=O)O [CBK264084] | 99.9 |
| O=C(NS(=O)(=O)c1cccc(-c2nnco2)c1)C1C2C3CCC(C3)C12 (stereo not shown) [CBK306488] | 89 |
| CC(=O)c1c(C)nn(C(C)CC(=O)Nc2ccc(Cl)c(Cl)c2)c1C (stereo not shown) [CBK270021] | 87.3 |
| O=C(NCc1ccco1)c1cc(S(=O)(=O)N2CCOCC2)ccc1Br [CBK269907] | 90.7 |
| COC(=O)c1c(NC(=O)C2CC=CCC2C(=O)O)sc2c1CCC(C)C2 (stereo not shown) [CBK262655] | 101 |
| CSCCCNC(=O)N(Cc1cccnc1)Cc1ccc2c(c1)OCO2 [CBK159426] | 92.7 |
| CCOc1ccccc1NC(=O)c1cc(CC(C)C)oc1C [CBK057904] | 101 |
| CC(=O)N1CCc2c([nH]c3ccccc23)[C@@]12CCN(Cc1ccc(F)cc1)C2 [CBK074955] | 83 |
| O=C(NC1CCCC1)c1ccc(-c2cnc3[nH]c(=O)n(C4CCCCC4)c3n2)cc1 [CBK064582] | 113 |
| COc1cc(/C=N/NC(=O)CCn2c3ccc(Cl)cc3c3cc(Cl)ccc32)ccc1O [CBK262351] | 112 |
| CN(C)CCOCCS(=O)(=O)c1ccc(N2CCC(c3ccc(Cl)cc3)=N2)cc1 [CBK018115] | 114 |
